Source: ChEMBL document CHEMBL1136236, “Design and parallel synthesis of piperidine libraries targeting the nociceptin (N/OFQ) receptor” (Bioorg Med Chem Lett, 2003)
pKi: −log10 of the molar value. The source made the active and inactive calls. The rule behind the calls is not given here.

Tests used:
[1] = target: T1, Delta-type opioid receptor (Homo sapiens, UniProt P41143); test: Antagonistic activity against Opioid receptor delta 1; not active; assay type: functional
Nociceptin receptor [2] = target: T2, Nociceptin receptor (Homo sapiens, UniProt P41146); test: Antagonistic activity against orphan FQ receptor; assay type: functional
[3] = target: T3, Kappa-type opioid receptor (Homo sapiens, UniProt P41145); test: Antagonistic activity against opioid receptor kappa 1; assay type: functional
Mu-type opioid receptor [4] = target: T4, Mu-type opioid receptor (Homo sapiens, UniProt P35372); test: Selectivity ratio of Opioid receptor mu 1 binding to Orphanin FQ receptor
Mu-type opioid receptor [5] = target: T4, Mu-type opioid receptor; test: Antagonistic activity against opioid receptor mu1; assay type: functional
Nociceptin receptor [6] = target: T2, Nociceptin receptor; test: Binding affinity against human orphanin FQ receptor expressed in recombinant HEK 293 cells; assay type: cell-based, HEK293
Nociceptin receptor [7] = target: T2, Nociceptin receptor; test: Inhibitory activity against human orphanin FQ receptor expressed in recombinant HEK 293 cells; assay type: cell-based; design: concentration or dose not given beside the values; conditions: HEK293; concentration not given here
Nociceptin receptor [8] = target: T2, Nociceptin receptor; test: Inhibitory activity against human orphanin FQ receptor expressed in recombinant HEK 293 cells; inactive; assay type: cell-based; conditions: HEK293
[9] = target: T1, Delta-type opioid receptor; test: Antagonistic activity against Opioid receptor delta 1; assay type: functional
[10] = target: T3, Kappa-type opioid receptor; test: Antagonistic activity against opioid receptor kappa 1; not active; assay type: functional
Nociceptin receptor [11] = target: T2, Nociceptin receptor; test: Inhibitory activity against human orphanin FQ receptor expressed in recombinant HEK 293 cells; in active; assay type: cell-based; conditions: HEK293

T3 sequence (P41145 whole entry): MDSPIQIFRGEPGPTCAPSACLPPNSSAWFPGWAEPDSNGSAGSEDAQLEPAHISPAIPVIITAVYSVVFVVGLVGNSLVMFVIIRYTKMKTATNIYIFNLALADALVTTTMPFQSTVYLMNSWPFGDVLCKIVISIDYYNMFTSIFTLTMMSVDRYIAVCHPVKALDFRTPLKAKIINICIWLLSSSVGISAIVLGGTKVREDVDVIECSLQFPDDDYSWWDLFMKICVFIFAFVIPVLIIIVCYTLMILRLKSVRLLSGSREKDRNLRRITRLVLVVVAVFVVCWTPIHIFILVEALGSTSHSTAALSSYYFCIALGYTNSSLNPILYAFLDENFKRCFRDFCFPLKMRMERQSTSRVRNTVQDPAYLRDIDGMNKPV
T4 sequence (P35372 whole entry): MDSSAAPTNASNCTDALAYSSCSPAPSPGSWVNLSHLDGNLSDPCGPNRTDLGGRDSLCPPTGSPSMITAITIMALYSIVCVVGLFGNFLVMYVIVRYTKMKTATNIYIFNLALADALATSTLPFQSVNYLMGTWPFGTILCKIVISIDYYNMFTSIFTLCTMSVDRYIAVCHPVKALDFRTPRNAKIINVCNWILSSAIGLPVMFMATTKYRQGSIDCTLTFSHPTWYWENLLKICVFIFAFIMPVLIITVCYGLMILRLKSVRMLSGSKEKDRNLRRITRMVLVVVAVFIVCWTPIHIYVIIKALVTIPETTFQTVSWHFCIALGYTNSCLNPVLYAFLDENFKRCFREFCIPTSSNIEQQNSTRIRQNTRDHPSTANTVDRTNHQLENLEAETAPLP
T2 sequence (P41146 whole entry): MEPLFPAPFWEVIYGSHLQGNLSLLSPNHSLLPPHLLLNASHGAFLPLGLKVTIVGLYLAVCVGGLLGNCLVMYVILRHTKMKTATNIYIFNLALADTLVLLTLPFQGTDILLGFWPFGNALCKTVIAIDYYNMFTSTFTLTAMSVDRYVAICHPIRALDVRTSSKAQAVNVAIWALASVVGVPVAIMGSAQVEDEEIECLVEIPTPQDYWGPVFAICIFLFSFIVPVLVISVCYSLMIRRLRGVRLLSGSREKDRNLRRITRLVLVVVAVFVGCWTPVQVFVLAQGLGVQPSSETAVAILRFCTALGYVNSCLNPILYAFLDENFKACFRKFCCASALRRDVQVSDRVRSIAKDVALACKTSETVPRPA
T1 sequence (P41143 whole entry): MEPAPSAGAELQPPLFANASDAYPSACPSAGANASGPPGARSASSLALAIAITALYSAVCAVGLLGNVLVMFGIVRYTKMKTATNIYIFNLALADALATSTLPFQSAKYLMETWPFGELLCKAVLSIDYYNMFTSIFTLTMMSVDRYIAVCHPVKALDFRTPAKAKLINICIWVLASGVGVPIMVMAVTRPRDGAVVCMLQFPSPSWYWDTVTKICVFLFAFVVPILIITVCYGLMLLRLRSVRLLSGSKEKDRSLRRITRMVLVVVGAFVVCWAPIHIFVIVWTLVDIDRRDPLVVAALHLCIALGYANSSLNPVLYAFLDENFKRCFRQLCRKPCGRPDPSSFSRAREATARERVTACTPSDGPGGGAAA

Row | Structure (SMILES) | pKi (Nociceptin receptor [2]) | Selectivity ratio (Mu-type opioid receptor [4]) | pKi (Mu-type opioid receptor [5]) | pKi (Nociceptin receptor [6]) | inhibition (Nociceptin receptor [7]) | also measured
1 | CCCC1CCC(N2CCC(O)(c3cccc(C(F)(F)F)c3)CC2)CC1 (configuration not stated) | 6.87 | 0.34 | 7.34 | – | – | Ki [1]: Not Active; pKi [3]: 5.22
2 | O=C(COCc1ccccc1)N1CCC(O)(c2ccc(Br)cc2)CC1 | – | – | – | < 5.00 | 50% | –
3 | N#CC1(c2ccccc2)CCN(Cc2ccc(F)cc2)CC1 | – | – | – | < 5.00 | 55% | –
4 | OC1(c2ccc(Cl)c(C(F)(F)F)c2)CCN(Cc2ccc(F)cc2)CC1 | – | – | – | 6.63 | 90% | –
5 | OC1(c2cccc(C(F)(F)F)c2)CCN(Cc2ccc(C(F)(F)F)cc2)CC1 | – | – | – | 5.19 | – | –
6 | N#CC1(c2ccccc2)CCN(Cc2ccc3ccccc3c2)CC1 | – | – | – | 5.96 | 70% | –
7 | O=[N+]([O-])c1ccc(CN2CCC(O)(c3ccc(Cl)c(C(F)(F)F)c3)CC2)o1 | – | – | – | < 5.00 | – | inhibition (Nociceptin receptor [8]): inactive
8 | OC1(c2ccc(Cl)c(C(F)(F)F)c2)CCN(C2Cc3ccccc3C2)CC1 | 7.09 | 0.23 | 7.72 | – | – | pKi [9]: 5.00; Ki [10]: Not Active
9 | OC1(c2ccc(Cl)c(C(F)(F)F)c2)CCN(Cc2ccc3ccccc3c2)CC1 | – | – | – | 6.06 | 70% | –
10 | CC(C)C1CCC(N2CCC(O)(c3cccc(C(F)(F)F)c3)CC2)CC1 (configuration not stated) | – | – | – | – | – | pKi [3]: 5.38
11 | OC1(c2cccc(C(F)(F)F)c2)CCN(CCC(c2ccccc2)c2ccccc2)CC1 | 6.94 | 0.01 | 9.00 | – | – | pKi [9]: 5.03; Ki [10]: Not Active
12 | OC1(c2cccc(C(F)(F)F)c2)CCN(CC2CCCCCCC2)CC1 | 6.99 | 1.11 | 6.95 | – | – | Ki [1]: Not Active; pKi [3]: 5.37
13 | OC1(c2ccc(Cl)cc2)CCN(CC2CCCCCCC2)CC1 | 6.30 | 1.25 | 6.20 | – | – | Ki [1]: Not Active; Ki [10]: Not Active
14 | OC1(c2ccc(Cl)c(C(F)(F)F)c2)CCN(CC2CCCCCCC2)CC1 | 7.33 | 2.64 | 6.91 | – | – | pKi [3]: 5.78; pKi [9]: 5.06
15 | OC1(c2ccc(Cl)c(C(F)(F)F)c2)CCN(CCC(c2ccccc2)c2ccccc2)CC1 | 6.65 | 0.02 | 8.40 | – | – | Ki [1]: Not Active; Ki [10]: Not Active
16 | N#Cc1ccc(CN2CCC(O)(c3ccc(Cl)c(C(F)(F)F)c3)CC2)cc1 | – | – | – | < 5.00 | – | inhibition (Nociceptin receptor [11]): inactive
17 | N#CC1(c2ccccc2)CCN(Cc2cccc3ccccc23)CC1 | – | – | – | 6.08 | 55% | –
18 | OC1(c2cccc(C(F)(F)F)c2)CCN(Cc2ccc3ccccc3c2)CC1 | – | – | – | 6.15 | 85% | –
19 | N#CC1(c2ccccc2)CCN(Cc2ccc(Cl)c(Cl)c2)CC1 | – | – | – | 5.90 | 65% | –
20 | OC1(c2ccc(Cl)cc2)CCN(Cc2ccc(C(F)(F)F)cc2)CC1 | – | – | – | 6.51 | 85% | –
21 | Cc1ccc2ccccc2c1CN1CCC(C#N)(c2ccccc2)CC1 | – | – | – | < 5.00 | – | inhibition (Nociceptin receptor [8]): inactive
22 | OC1(c2cccc(C(F)(F)F)c2)CCN(Cc2ccc(F)cc2)CC1 | – | – | – | 6.16 | 80% | –
23 | CC(C)C1CCC(N2CCC(O)(c3ccc(Cl)c(C(F)(F)F)c3)CC2)CC1 (configuration not stated) | 7.48 | 0.24 | 8.10 | – | – | pKi [9]: 5.00; Ki [10]: Not Active
24 | OC1(c2ccc(Cl)cc2)CCN(Cc2ccc3ccccc3c2)CC1 | – | – | – | 6.82 | 90% | –
25 | OC1(c2ccc(Cl)c(C(F)(F)F)c2)CCN(Cc2ccc(C(F)(F)F)cc2)CC1 | – | – | – | 5.92 | 55% | –
26 | OC1(c2cccc(C(F)(F)F)c2)CCN(C2CCC3CCCCC3C2)CC1 (configuration not stated) | 7.92 | 1.75 | 7.68 | – | – | pKi [9]: 5.00; Ki [10]: Not Active
